Results taken from patent US12157730B2, “Heteroaryl derivative, method for producing same, and pharmaceutical composition comprising same as effective component” (VORONOI INC., priority 2019, dated 2024).

Molecular target: T1, Ba/F3 cell EGFR Exon20 ins NPH (Homo sapiens, UniProt P00533, INS773NPH)
T1 construct: expressed in transfected cells; host or cells: Ba/F3
Assay: Ba/F3 cell proliferation suppression, EGFR Exon20 ins NPH
Type: cell-based
Conditions: GI50 class; Ba/F3 cell line with NPH inserted at Exon20 of EGFR; 72 hours
In short: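 Seed 3000–5000 cells/well; after 24 h add compound (12 conc., 0.3 nM–50 um final); incubate 72 h; add CellTiter-Glo, 10 min room temperature; read luminescence; GI50 from % growth vs control, triplicate.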

| Compound | Ba/F3 (NPH) Activity |
| --- | --- |
| C=CC(=O)Nc1cc(Nc2cc(N3OCC[C@H]3c3c(F)cccc3F)ncn2)c(OC)cc1N1CCN(CC)CC1 [compound 895, N-(5-((6-((S)-3-(2,6-difluorophenyl)isoxazolidine-2-yl)pyrimidine-4-yl)amino)-2-(4-ethylpiperazine-1-yl)-4-methoxyphenyl) acrylamide] | C (500 nM ≤ GI50 < 5000 nM) |
| C=CC(=O)Nc1cc(Nc2cc(N3OCC[C@@H]3c3cc(F)cc(Cl)c3)ncn2)c(OC)cc1N1CC(N2CCN(C3CC3)CC2)C1 [compound 587, N-(5-((6-((R)-3-(3-chloro-5-fluorophenyl)isoxazolidine-2-yl)pyrimidine-4-yl)amino)-2-(3-(4-cyclopropylpiperazine-1-yl)azetidine-1-yl)-4-methoxyphenyl) acrylamide] | B (50 nM ≤ GI50 < 500 nM) |
| C=CC(=O)Nc1cc(Nc2cc(N3OCC[C@@H]3c3ccc(F)cc3F)ncn2)c(OC)cc1N1CCC(N2CCN(C(C)=O)CC2)CC1 [compound 427, N-(2-(4-(4-acetylpiperazine-1-yl)piperidine-1-yl)-5-((6-((R)-3-(2,4-difluorophenyl)isoxazolidine-2-yl)pyrimidine-4-yl)amino)-4-methoxyphenyl) acrylamide] | A (GI50 < 50 nM) |
| C=CC(=O)Nc1cc(Nc2cc(N3OCC[C@@H]3c3cccc4ccccc34)ncn2)c(OC)cc1N1CCN(C)CC1 [compound 441, N-(4-methoxy-2-(4-methylpiperazine-1-yl)-5-((6-((R)-3-(naphthalene-1-yl)isoxazolidine-2-yl)pyrimidine-4-yl)amino)phenyl) acrylamide] | B (50 nM ≤ GI50 < 500 nM) |
| C=CC(=O)Nc1cc(Nc2cc(N3OCC[C@@H]3Cc3cccc(Cl)c3Cl)ncn2)c(OC)cc1N1CC[C@@H](N(C)C)C1 [compound 984, N-(5-((6-((S)-3-(2,3-dichlorobenzyl)isoxazolidine-2-yl)pyrimidine-4-yl)amino)-2-((R)-3-(dimethylamino)pyrolidine-1-yl)-4-methoxyphenyl) acrylamide] | A (GI50 < 50 nM) |
| C=CC(=O)Nc1cc(Nc2cc(N3OCC[C@@H]3c3ccc(F)cc3)ncn2)c(OC)cc1N1CCC(N2CC[C@@H](N(C)C)C2)CC1 [compound 810, N-(2-(4-((R)-3-(dimethylamino)pyrolidine-1-yl)piperidine-1-yl)-5-((6-((R)-3-(4-fluorophenyl)isoxazolidine-2-yl)pyrimidine-4-yl)amino)-4-methoxyphenyl) acrylamide] | A (GI50 < 50 nM) |
| C=CC(=O)Nc1cc(Nc2cc(N3OCC[C@@H]3c3ccc(Cl)cc3F)ncn2)c(OC)cc1N1CCC(N2CCC(N(C)C)CC2)CC1 [compound 410, N-(5-((6-((R)-3-(4-chloro-2-fluorophenyl)isoxazolidine-2-yl)pyrimidine-4-yl)amino)-2-(4-(dimethylamino)-[1,4'-bipiperidine]-1'-yl)-4-methoxyphenyl) acrylamide] | B (50 nM ≤ GI50 < 500 nM) |
| C=CC(=O)Nc1cc(Nc2cc(N3OCC[C@@H]3c3cccc(C#N)c3)ncn2)c(OC)cc1N1CCC(N2CC[C@@H](N(C)C)C2)CC1 [compound 492, N-(5-((6-((R)-3-(3-cyanophenyl)isoxazolidine-2-yl)pyrimidine-4-yl)amino)-2-(4-((R)-3-(dimethylamino)pyrolidine-1-yl)piperidine-1-yl)-4-methoxyphenyl) acrylamide] | B (50 nM ≤ GI50 < 500 nM) |
| C=CC(=O)Nc1cc(Nc2cc(N3OCC[C@@H]3c3ccc(F)c(Cl)c3F)ncn2)c(OC)cc1N1CCN(C)CC1 [compound 604, N-(5-((6-((R)-3-(3-chloro-2,4-difluorophenyl)isoxazolidine-2-yl)pyrimidine-4-yl)amino)-4-methoxy-2-(4-methylpiperazine-1-yl)phenyl)acrylamide] | A (GI50 < 50 nM) |
